Entries after “also recorded” stand apart in the source; their conditions may differ. Marks after values point to notes of the source that are not given here.

Experiment [1] deals with Escherichia coli (RCMB 0103). Put plainly: Antimicrobial screening, disc diffusion. The following applies: compounds isolated from Cunninghamella elegans. It counts as cell-based. As to the method: (§1) The alcoholic extracts obtained were used for testing their antimicrobial activity. Each extract (0.5 g) was dissolved in 10 ml water. Same concentrations for the successive extracts (using diethyl ether, chloroform, ethyl acetate and n-butanol) were also prepared.
(§2) The representatives of Gram negative bacteria, namely Salmonella typhimuium (RCMB 0104), Escherichia coli (RCMB 0103), Pseudomonas aeruginosa (RCMB 0102) and Gram positive bacteria, namely Bacillus subtilis (RCMB 0107), Staphylococcus aureus (RCMB 0106), Streptococcus pyogenes (RCMB 0109), unicellular fungi, namely Candida albicans (RCMB 5002) and filamentous fungi, namely Aspergillus fumigatus (RCMB 2003) and Penicllium expansum (RCMB 1006) were used as test organisms (RCMB: The Regional Center for Mycology and Biotechnology, Al-azhar University Nasser City, Cairo, Egypt).
(§3) For antimicrobial screening the well known disc diffusion and agar well diffusion methods were used, together with the determination of minimum inhibitory concentration (MIC), see Duguid et al., Microbial Infections, The English Language Book Society, Churchill Livingston, Edingburgh, London, 1978; vol. 1, page 110.
(§4) Disc diffusion method: The agar disc diffusion method is employed for the determination of antimicrobial activities of the extracts of the investigated fungal species. Sterilized paper discs (Whatman No. 1) ([…]) were separately soaked in the extracts and transferred onto the surface of growth media seeded with the test organism. After incubation period, following suitable conditions for the test organism, the diameter of the inhibition zone around the discs was measured in millimeters. The obtained result was the mean of three experiments.
(§5) Each fungal species was grown on malt extract media at 28±2° C. for 14 days. The metabolites of the fungal species were screened for antimicrobial activity. The inhibition zones around each disc were measured, in millimeter, and recorded (Tables 1).
Background: Agar diffusion results depend on both activity and mobility in agar.

Experiment [2] relates to Candida albicans (RCMB 5002). Put plainly: Antimicrobial screening, disc diffusion. The following applies: compounds isolated from Cunninghamella elegans. The experiment is classed as cell-based. As to the method:
as §1, §2, §3, §4, §5

The subject of experiment [3] is Streptococcus pyogenes (RCMB 0109). Put plainly: Antimicrobial screening, disc diffusion. It counts as cell-based. The following applies: compounds isolated from Cunninghamella elegans. As to the method: as §1, §2, §3, §4, §5
For experiment [4], the system named is Penicllium expansum (RCMB 1006). Put plainly: Antimicrobial screening, disc diffusion. It counts as cell-based. The following applies: Penicillium expansum; compounds isolated from Cunninghamella elegans. Here is the method:
as §1, §2, §3, §4, §5

The test system of experiment [5] is Aspergillus fumigatus (RCMB 2003). The experiment is described as follows: Antimicrobial screening, disc diffusion. It counts as cell-based. The following applies: compounds isolated from Cunninghamella elegans. As to the method:
as §1, §2, §3, §4, §5

The subject of experiment [6] is Staphylococcus aureus (RCMB 0106). Put plainly: Antimicrobial screening, disc diffusion. It counts as cell-based. The following applies: compounds isolated from Cunninghamella elegans. As to the method: as §1, §2, §3, §4, §5
In experiment [7] the test system is Pseudomonas aeruginosa (RCMB 0102). Put plainly: Antimicrobial screening, disc diffusion. It counts as cell-based. The settings on record: Pseudomonas aeurginosa; compounds isolated from Cunninghamella elegans. As to the method: as §1, §2, §3, §4, §5
The subject of experiment [8] is Bacillus subtilis (RCMB 0107). Put plainly: Antimicrobial screening, disc diffusion. It counts as cell-based. The following applies: compounds isolated from Cunninghamella elegans. As to the method:
as §1, §2, §3, §4, §5

Experiment [9] deals with Staphylococcus aureus infected wounds. Put plainly: Wound healing activity, excision wound model. The experiment is classed as in vivo, guinea pig. As to the method:
Swiss albino mice (20-25 g), male Sprague-Dawley rats (160-180 g) and male guinea pigs (240-260 g) were employed in the study. The animals were left for 2 weeks at room conditions to ensure stabilization before use. They were maintained on standard pellet diet and water ad libitum throughout the experiment. • a) Acute Toxicity: Mice were divided into groups of 6 and the methanol extracts of C. blakesleeana, C. elegans and C. homothallica were administered orally in increasing doses. […] Rats of the 1^St group were given a vehicle (1% v/v Tween 80) in a dose of 5 ml kg^−1 and left as normal control. Rats of the 2nd, 3rd, and 4th groups were administered the methanol extracts of C. blakesleeana, C. elegans and C. homothallica, respectively in a dose of 200 mg kg^−1. All medications were administered orally via the aid of an oral tube for 35 days. […] At the end of the experimental period, blood samples (2 mL) were collected from the retro-orbital venous plexus of each rat (under ether anesthesia) into clean centrifuge tubes. The blood samples were allowed to clot at room temperature for 30 min after which they were centrifuged at 10,000 rpm for 5 minutes. Sera were separate with Pasteur pipette into sterile serum sample tubes and used for biochemical assay.
Measurement of Liver and Kidney Function Markers: • Liver functions were evaluated by measuring the serum activity of aspartate aminotransferase (AST) and alanine aminotransferase (ALT) following the method of Reitman and Frankel, Am. J. Clin. Path., 28: 55-60, alkaline phosphatase enzyme (ALP) by the method of Babson et al., Clinical Chemistry, 12: 482-490. Serum levels of total bilirubin, total proteins and albumin were also assayed. Globulin was obtained from the difference between total proteins and albumin. Serum concentrations of uric acid, urea and creatinine were determined colormetrically as measures of kidney functions. All measurements were carried out by protocols well known in the art. • c) Wound Healing Activity: The excision wound model was used to monitor wound contraction and wound closure time. Four groups of male guinea pigs were used in the experiment with 6 animals in each group. At the beginning of the experiment, the dorsal skin of each guinea pig was shaved with an electric clipper. After 24 hours, all animals were anesthetized by diethyl ether and the shaved areas were sterilized with 70% alcoholic solution. A predetermined dorsal area (15 mm×20 mm) was inflicted by cutting away a full thickness of skin (2 mm depth) using toothed forceps, scalpel and pointed scissors. A fresh surgical blade was used for the perpendicular cut in each animal and tension of skin was kept constant during the procedure. Local infection with Staphylococcus aureus was introduced into wounds using 0.5 mL of 10^8 bacteria mL^−1 inoculums. The wounds were left undressed to the open environment and the animals were kept individually in separate cages. • Wounds treatment: Wounds were air exposed and treatment began 24 h after injury. Wounds of the control animals were treated with the vehicle (1% v/v Tween 80). Guinea pigs of the second and third group were treated with total alcohol extract of C. elegans and the isolated compound (adenosine) in a concentration of 5 mg mL^−1, while animals of the fourth group were medicated with latamoxef (Moxalactam)® in a concentration of 30 μg mL^−1 (Reference group). The vehicle, extract, and reference drug were applied topically on the wound surface once a day for 18 days. […] of each tested material was applied slowly, using an insulin syringe, from the central point extending outside the wound area to ensure inclusion of the edges. Swabs were taken on day 5 to confirm the presence of the expected organisms in the pus. • Assessment of wound healing: The wound areas were measured while the animals were under anaesthesia on days 0, 4, 7, 10, 14, and 18 post-wounding by tracing the wound areas onto a transparent tracing paper. […]

Setting [10] is: topical 5 mg mL^−1 once a day, n = 6.
The mark [11] stands for this setting: topical 5 mg mL^−1 once a day, n = 6, listed as compound 1 (adenosine).

Turning to `Nc1ncnc2c1ncn2C1OC(CO)C(O)C1O` (centres unmarked) [Compound 4, 2-(6-amino-9H-purine-9-yl)-5-(hydroxymethyl)oxolane-3,4-diol], the “Diameter of inhibition zone” value in experiment [1] was 00.0 mm; in experiment [2], 00.0 mm; in [3], 00.0 mm; in [4], 00.0 mm; in experiment [5] it was 00.0 mm; in experiment [6], 30.0 ± 0.1 mm. Besides, the “Diameter of inhibition zone” value in experiment [6] (listed as compound 4) was 30.0±0.01 mm; in experiment [7], 00.0 mm; in experiment [8] it was 00.0 mm. This molecule also returned a wound contraction in experiment [9] (Day 14, topical 5 mg mL^−1) of 76.50%. Besides, in experiment [9] (day 0, topical 5 mg mL^−1 once a day, n = 6), the “Wound area on day 0” value came out at 300 ± 0.0 mm^2. Further, the “Wound area on day 4” value in [9] (day 4, topical 5 mg mL^−1 once a day, n = 6) was 241.2 ± 4.23* mm^2. For the same molecule, the “Wound area on day 7” value in experiment [9] (day 7, topical 5 mg mL^−1 once a day, n = 6) is 168.1 ± 2.18** mm^2. Further, the “Wound area on day 10” value is recorded as 83.4±3.16 mm^2 in experiment [9] (setting [10]) and 85.6 ± 4.13*** mm^2 in [9] (setting [11]). The figures for the “Wound area on day 14” value in [9] (setting [10]) and in experiment [9] (setting [11]) were 22.4±1.15 mm^2 and 23.3 ± 1.11*** mm^2, respectively. For the same molecule, the “Wound area on day 18” value in [9] (setting [10]) was found to be 0.0 mm^2; in experiment [9] (setting [11]), 0.0 ± 0.0 mm^2. Moreover, the “wound healing effect (in words)” value in [9] (topical 5 mg mL−1 on excised infected wound) is “effective in healing excision type of wounds; also recorded: good wound healing effect”.

Source of the values: patent US20130224239A1, “ALCOHOLIC EXTRACT OF FUNGI OF GENUS […] AND USE THEREOF” (KING SAUD UNIVERSITY, priority 2011, published 2013).
